Legend:
[1] = molecular target: Activin receptor type-1B (Homo sapiens) (UniProt P36896); experiment: Inhibition of ALK4(h) at 10.0 µM in the Eurofins Kinase panel; conditions: Compound concentration 10.0 uM
[2] = molecular target: Serine/threonine-protein kinase BRSK1 (Homo sapiens) (UniProt Q8TDC3); experiment: Inhibition of BrSK1(h) at 10.0 µM in the Eurofins Kinase panel; conditions: Compound concentration 10.0 uM
[3] = molecular target: CDK17/Cyclin-Y (Homo sapiens) (UniProt Q00537+Q8ND76); experiment: Inhibition of CDK17/cyclinY(h) at 10.0 µM in the Eurofins Kinase panel; type: protein-complex assay; conditions: Compound concentration 10.0 uM
[4] = molecular target: CDK18/Cyclin Y (Homo sapiens) (UniProt Q07002+Q8ND76); experiment: Inhibition of CDK18/cyclinY(h) at 10.0 µM in the Eurofins Kinase panel; type: protein-complex assay; conditions: Compound concentration 10.0 uM
[5] = molecular target: Serine/threonine-protein kinase 17B (Homo sapiens) (UniProt O94768); experiment: Inhibition of DRAK2(h) at 10.0 µM in the Eurofins Kinase panel; conditions: Compound concentration 10.0 uM
[6] = molecular target: Cyclin-G-associated kinase (Homo sapiens) (UniProt O14976); experiment: Inhibition of GAK(h) at 10.0 µM in the Eurofins Kinase panel; conditions: Compound concentration 10.0 uM
[7] = molecular target: Beta-adrenergic receptor kinase 1 (Homo sapiens) (UniProt P25098); experiment: Inhibition of GRK2(h) at 10.0 µM in the Eurofins Kinase panel; conditions: Compound concentration 10.0 uM
[8] = molecular target: Interleukin-1 receptor-associated kinase 1 (Homo sapiens) (UniProt P51617); experiment: Inhibition of IRAK1(h) at 10.0 µM in the Eurofins Kinase panel; conditions: Compound concentration 10.0 uM
[9] = molecular target: Mitogen-activated protein kinase 9 (Homo sapiens) (UniProt P45984); experiment: Inhibition of JNK2alpha2(h) at 10.0 µM in the Eurofins Kinase panel; conditions: Compound concentration 10.0 uM
[10] = molecular target: Mitogen-activated protein kinase kinase kinase 21 (Homo sapiens) (UniProt Q5TCX8); experiment: Inhibition of MLK4(h) at 10.0 µM in the Eurofins Kinase panel; conditions: Compound concentration 10.0 uM
[11] = molecular target: Eukaryotic translation initiation factor 2-alpha kinase 3 (Homo sapiens) (UniProt Q9NZJ5); experiment: Inhibition of PEK(h) at 10.0 µM in the Eurofins Kinase panel; conditions: Compound concentration 10.0 uM
[12] = molecular target: Tau-tubulin kinase 2 (Homo sapiens) (UniProt Q6IQ55); experiment: Inhibition of TTBK2(h) at 10.0 µM in the Eurofins Kinase panel; conditions: Compound concentration 10.0 uM
[13] = molecular target: [Pyruvate dehydrogenase (acetyl-transferring)] kinase isozyme 2, mitochondrial (Homo sapiens) (UniProt Q15119); experiment: Inhibition of PDHK2(h) at 10.0 µM in the Eurofins Kinase panel; conditions: Compound concentration 10.0 uM
[14] = molecular target: STE20-like serine/threonine-protein kinase (Homo sapiens) (UniProt Q9H2G2); experiment: Inhibition of SLK(h) at 10.0 µM in the Eurofins Kinase panel; conditions: Compound concentration 10.0 uM
[15] = molecular target: Histamine H3 receptor (Homo sapiens) (UniProt Q9Y5N1); conditions: Compound concentration 10.0 uM
[16] = molecular target: D(3) dopamine receptor (Homo sapiens) (UniProt P35462); conditions: Compound concentration 10.0 uM
[17] = molecular target: Histamine H1 receptor (Homo sapiens) (UniProt P35367); conditions: Compound concentration 10.0 uM
[18] = molecular target: T1, Muscarinic acetylcholine receptor M2 (Homo sapiens) (UniProt P08172); conditions: Compound concentration 10.0 uM
T1 sequence (whole entry): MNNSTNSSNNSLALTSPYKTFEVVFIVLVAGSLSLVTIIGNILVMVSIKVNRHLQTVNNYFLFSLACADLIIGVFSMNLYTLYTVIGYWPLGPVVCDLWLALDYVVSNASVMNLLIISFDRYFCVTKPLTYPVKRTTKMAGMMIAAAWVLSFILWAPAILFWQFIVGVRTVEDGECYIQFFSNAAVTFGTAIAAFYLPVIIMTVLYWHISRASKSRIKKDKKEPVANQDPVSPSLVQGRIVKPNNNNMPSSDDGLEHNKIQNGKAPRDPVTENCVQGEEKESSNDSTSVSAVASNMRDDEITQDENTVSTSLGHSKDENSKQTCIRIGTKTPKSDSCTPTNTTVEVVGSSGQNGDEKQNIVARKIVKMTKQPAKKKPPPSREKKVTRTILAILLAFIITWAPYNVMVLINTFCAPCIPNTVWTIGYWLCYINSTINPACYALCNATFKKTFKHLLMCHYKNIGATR

[19] = molecular target: Kappa-type opioid receptor (Homo sapiens, UniProt P41145); experiment: GPCRScan assay: inhibition of KOR; set-up: radioligand conc. used [nm] 0.6 – 1.2, parental cells stable HEK
[20] = molecular target: Cysteinyl leukotriene receptor 1 (Homo sapiens) (UniProt Q9Y271); experiment: Inhibition of Leukotriene, Cysteinyl CysLT1 at 10 µM in the Eurofins-Panlabs radioligand binding assay (Eurofins_assay_250460); set-up: ligand concentration 0.3 nM, non-specific ligand with concentration 0.3 µM Leukotriene D4, incubation time 30 min, incubation temperature 25 °C; conditions: Compound concentration 10.0 uM
[21] = molecular target: Receptor tyrosine-protein kinase erbB-2 (Homo sapiens) (UniProt P04626); experiment: Inhibition of Protein Tyrosine Kinase, ERBB2 (HER2) at 10 µM in the Eurofins-Panlabs enzyme assay (Eurofins_assay_174020); set-up: substrate with concentration; conditions: Compound concentration 10.0 uM
[22] = molecular target: Thromboxane-A synthase (Homo sapiens) (UniProt P24557); experiment: Inhibition of Thromboxane Synthase at compound concentration of 10.0 uM in the Eurofins-Panlabs enzyme assay (Eurofins_assay_194020); set-up: substrate with concentration; conditions: Compound concentration 10.0 uM
[23] = molecular target: T2, Muscarinic acetylcholine receptor M5 (Homo sapiens) (UniProt P08912); experiment: Inhibition of Muscarinic M5 at 10 µM in the Eurofins-Panlabs radioligand binding assay (Eurofins_assay_253010); set-up: ligand concentration 0.8 nM; conditions: Compound concentration 10.0 uM
T2 sequence (whole entry): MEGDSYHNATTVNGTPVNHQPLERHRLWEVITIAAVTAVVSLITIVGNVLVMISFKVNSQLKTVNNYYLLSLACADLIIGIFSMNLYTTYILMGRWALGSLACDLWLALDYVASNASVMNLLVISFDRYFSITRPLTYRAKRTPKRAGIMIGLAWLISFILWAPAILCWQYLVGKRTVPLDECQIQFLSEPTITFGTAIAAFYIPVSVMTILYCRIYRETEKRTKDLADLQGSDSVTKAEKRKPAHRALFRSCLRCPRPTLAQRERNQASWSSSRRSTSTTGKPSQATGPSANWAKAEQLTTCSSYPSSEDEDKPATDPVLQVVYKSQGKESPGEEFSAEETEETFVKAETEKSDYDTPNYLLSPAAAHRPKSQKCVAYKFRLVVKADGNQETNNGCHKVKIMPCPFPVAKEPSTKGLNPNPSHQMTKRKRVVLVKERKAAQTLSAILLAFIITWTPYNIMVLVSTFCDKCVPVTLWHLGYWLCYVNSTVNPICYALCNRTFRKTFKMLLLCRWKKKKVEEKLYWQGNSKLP

Vasopressin V1a receptor = Vasopressin V1a receptor (Homo sapiens, UniProt P37288); experiment: Inhibition of Vasopressin V1A at compound concentration of 10.0 uM in the Eurofins-Panlabs radioligand binding assay (Eurofins_assay_287530); set-up: ligand concentration 0.03 nM, non-specific ligand with concentration 1 uM (Arg8)-Vasopressin, incubation time 2 h, incubation temperature 25 C
[24] = molecular target: Progesterone receptor (Homo sapiens) (UniProt P06401); experiment: Inhibition of Progesterone PR-B at 10 µM in the Eurofins-Panlabs radioligand binding assay (Eurofins_assay_268020); set-up: ligand concentration 1.4 nM; conditions: Compound concentration 10.0 uM
[25] = molecular target: Beta-1 adrenergic receptor (Homo sapiens) (UniProt P08588); conditions: Compound concentration 10.0 uM

Sequence of Histamine H3 receptor (Homo sapiens) (Q9Y5N1 whole entry): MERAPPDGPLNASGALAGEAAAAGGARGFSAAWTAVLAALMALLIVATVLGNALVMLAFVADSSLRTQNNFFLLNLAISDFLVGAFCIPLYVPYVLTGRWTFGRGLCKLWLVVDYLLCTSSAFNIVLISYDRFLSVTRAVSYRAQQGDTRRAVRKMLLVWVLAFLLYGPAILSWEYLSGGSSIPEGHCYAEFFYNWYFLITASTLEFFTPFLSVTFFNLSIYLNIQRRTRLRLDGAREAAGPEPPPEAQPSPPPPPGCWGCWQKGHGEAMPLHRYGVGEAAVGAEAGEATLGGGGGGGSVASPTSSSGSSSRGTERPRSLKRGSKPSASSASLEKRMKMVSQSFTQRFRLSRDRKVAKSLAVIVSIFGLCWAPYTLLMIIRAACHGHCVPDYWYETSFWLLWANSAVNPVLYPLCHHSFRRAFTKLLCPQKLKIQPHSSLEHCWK
Sequence of Kappa-type opioid receptor (P41145 whole entry): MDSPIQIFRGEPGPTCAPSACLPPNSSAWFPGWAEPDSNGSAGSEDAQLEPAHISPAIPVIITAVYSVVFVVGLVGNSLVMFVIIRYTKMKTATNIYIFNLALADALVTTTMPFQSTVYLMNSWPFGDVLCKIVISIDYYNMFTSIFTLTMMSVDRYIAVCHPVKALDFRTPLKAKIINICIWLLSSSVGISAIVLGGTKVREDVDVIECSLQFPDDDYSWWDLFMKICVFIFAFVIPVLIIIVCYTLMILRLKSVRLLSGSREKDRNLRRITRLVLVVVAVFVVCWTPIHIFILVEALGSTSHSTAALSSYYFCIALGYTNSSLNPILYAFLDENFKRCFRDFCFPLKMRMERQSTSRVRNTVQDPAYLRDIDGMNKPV
Sequence of Cyclin-G-associated kinase (Homo sapiens) (O14976 whole entry): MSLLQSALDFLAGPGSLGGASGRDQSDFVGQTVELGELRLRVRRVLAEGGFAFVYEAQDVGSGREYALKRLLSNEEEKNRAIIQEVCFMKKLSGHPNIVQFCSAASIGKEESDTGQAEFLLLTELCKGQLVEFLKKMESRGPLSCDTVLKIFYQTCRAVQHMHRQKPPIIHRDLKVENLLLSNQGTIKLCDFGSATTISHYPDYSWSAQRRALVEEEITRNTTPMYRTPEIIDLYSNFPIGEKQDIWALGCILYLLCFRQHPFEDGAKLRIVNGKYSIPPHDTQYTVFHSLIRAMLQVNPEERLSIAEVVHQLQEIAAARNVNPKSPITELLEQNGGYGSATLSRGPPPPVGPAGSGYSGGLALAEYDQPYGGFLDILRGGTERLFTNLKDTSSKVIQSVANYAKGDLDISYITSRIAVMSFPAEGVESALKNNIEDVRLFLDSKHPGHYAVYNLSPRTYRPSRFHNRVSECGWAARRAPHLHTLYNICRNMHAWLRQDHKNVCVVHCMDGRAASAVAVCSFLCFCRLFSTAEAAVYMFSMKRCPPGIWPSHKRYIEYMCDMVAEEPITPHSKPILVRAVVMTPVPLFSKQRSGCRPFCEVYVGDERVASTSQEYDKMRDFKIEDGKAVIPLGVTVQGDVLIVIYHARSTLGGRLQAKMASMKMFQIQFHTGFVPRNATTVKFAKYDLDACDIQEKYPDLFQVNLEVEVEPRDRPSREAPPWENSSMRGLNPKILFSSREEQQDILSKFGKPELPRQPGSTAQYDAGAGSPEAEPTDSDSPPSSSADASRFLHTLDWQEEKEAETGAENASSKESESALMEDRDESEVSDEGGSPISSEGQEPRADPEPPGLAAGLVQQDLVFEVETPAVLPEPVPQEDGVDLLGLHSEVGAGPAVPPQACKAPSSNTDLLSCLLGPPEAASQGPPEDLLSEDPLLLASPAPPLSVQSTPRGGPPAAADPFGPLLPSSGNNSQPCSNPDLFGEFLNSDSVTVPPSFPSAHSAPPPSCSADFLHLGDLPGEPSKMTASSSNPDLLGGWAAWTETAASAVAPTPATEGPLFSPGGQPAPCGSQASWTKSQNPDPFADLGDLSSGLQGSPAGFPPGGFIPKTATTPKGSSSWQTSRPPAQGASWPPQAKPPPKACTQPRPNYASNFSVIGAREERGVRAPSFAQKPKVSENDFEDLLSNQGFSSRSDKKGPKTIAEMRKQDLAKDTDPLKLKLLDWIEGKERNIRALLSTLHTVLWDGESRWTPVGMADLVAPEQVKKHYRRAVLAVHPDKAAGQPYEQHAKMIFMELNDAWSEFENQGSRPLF
Sequence of Histamine H1 receptor (Homo sapiens) (P35367 whole entry): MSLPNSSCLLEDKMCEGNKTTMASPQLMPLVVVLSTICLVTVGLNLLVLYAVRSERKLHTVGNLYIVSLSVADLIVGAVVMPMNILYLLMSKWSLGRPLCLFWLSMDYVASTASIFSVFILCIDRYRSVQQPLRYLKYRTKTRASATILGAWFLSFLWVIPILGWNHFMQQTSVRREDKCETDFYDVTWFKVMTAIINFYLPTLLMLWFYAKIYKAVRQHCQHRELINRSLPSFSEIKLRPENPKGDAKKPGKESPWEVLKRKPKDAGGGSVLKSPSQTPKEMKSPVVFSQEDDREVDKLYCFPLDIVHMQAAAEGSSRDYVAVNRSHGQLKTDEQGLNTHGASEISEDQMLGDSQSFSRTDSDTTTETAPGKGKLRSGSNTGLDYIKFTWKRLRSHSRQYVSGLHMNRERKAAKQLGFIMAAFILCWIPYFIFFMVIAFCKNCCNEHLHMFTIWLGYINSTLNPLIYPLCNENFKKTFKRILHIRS
Sequence of Serine/threonine-protein kinase BRSK1 (Homo sapiens) (Q8TDC3 whole entry): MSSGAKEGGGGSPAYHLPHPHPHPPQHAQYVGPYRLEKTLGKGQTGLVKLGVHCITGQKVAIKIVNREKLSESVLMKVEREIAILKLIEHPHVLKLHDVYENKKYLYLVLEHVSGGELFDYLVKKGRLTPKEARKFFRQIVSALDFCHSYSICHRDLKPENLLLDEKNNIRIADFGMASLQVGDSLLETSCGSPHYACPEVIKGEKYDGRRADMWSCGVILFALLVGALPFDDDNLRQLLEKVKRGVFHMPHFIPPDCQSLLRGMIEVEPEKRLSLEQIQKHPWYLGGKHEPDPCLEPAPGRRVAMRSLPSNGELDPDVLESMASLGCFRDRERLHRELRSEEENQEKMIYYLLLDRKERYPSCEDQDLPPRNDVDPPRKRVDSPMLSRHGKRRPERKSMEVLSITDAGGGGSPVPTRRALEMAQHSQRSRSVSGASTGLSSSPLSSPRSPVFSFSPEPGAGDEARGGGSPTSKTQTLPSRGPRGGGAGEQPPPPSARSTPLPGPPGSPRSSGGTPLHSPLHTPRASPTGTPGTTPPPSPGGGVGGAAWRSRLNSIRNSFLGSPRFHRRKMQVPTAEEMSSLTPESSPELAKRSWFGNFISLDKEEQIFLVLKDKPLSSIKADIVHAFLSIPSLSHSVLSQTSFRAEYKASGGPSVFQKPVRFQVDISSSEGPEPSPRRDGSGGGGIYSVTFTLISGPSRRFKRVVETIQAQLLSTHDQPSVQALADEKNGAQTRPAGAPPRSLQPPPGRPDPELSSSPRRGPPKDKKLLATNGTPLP
Sequence of Beta-adrenergic receptor kinase 1 (Homo sapiens) (P25098 whole entry): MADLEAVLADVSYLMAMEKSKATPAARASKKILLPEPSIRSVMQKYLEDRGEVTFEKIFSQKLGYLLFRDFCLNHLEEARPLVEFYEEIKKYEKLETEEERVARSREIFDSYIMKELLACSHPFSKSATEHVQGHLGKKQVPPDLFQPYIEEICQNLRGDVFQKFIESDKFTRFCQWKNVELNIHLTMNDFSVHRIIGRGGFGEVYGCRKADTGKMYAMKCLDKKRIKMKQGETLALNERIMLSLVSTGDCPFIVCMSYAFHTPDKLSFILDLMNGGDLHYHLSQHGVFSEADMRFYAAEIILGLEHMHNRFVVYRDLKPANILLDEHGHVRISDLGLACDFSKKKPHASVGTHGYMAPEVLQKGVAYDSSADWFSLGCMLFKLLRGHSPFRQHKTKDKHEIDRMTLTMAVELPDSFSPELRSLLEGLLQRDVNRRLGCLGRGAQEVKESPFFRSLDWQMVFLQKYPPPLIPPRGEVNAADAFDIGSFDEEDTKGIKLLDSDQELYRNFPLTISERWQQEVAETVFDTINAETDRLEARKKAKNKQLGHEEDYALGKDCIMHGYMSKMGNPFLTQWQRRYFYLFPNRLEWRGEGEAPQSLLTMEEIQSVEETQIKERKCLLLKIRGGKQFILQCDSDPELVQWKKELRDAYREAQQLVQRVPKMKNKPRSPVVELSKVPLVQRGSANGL
Sequence of Mitogen-activated protein kinase 9 (Homo sapiens) (P45984 whole entry, looked up): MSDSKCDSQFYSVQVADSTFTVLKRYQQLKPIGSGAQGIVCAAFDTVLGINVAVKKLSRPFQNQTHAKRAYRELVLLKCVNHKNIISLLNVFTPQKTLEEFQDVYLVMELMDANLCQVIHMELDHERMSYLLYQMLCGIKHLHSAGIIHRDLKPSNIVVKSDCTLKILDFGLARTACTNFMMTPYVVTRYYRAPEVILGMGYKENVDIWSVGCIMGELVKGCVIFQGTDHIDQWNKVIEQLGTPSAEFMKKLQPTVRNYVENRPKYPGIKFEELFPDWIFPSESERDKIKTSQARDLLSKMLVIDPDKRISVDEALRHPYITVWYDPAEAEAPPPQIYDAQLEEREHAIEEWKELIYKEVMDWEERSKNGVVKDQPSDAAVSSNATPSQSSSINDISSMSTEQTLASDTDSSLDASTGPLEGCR
Sequence of Activin receptor type-1B (Homo sapiens) (P36896 whole entry): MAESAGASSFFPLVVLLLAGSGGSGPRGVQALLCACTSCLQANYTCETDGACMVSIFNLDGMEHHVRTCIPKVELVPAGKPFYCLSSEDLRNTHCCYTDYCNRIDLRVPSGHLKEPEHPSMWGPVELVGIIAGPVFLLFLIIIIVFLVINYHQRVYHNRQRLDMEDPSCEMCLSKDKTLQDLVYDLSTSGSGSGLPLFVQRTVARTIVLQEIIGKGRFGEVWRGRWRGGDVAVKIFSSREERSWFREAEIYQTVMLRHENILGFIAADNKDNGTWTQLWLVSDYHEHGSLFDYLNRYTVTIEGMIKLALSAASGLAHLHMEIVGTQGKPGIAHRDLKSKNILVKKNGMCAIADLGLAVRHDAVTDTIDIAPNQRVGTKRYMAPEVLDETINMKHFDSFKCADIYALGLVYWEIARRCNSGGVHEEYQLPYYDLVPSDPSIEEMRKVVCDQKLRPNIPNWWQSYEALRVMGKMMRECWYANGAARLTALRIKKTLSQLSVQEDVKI

| SMILES | inhibition [1] [%] | inhibition [2] [%] | inhibition [3] [%] | inhibition [4] [%] | inhibition [5] [%] | inhibition [6] [%] | inhibition [7] [%] | inhibition [8] [%] | inhibition [9] [%] | inhibition [10] [%] | inhibition [11] [%] | inhibition [12] [%] | inhibition [15] [%] | inhibition [16] [%] | inhibition [17] [%] | inhibition [18] [%] | further results |
| --- | --- | --- | --- | --- | --- | --- | --- | --- | --- | --- | --- | --- | --- | --- | --- | --- | --- |
| O=c1n(Cc2cncn2-c2cccc(Cl)c2)nc(-c2ccc(Cl)cc2)n1C[C@H](O)C(F)(F)F | 3.01 | 4.95 | 3.78 | -1.75 | -2.64 | 0.33 | -6.21 | 1.24 | 2.28 | 8.45 | -1.49 | -2.08 | 5.05 | -8 | 9 | 17 | inhibition [13]: -4.87%; inhibition [14]: 0.22% |
| C[C@H](O)c1nc(Cn2nc(-c3ccc(Cl)cc3)n(C[C@H](O)C(F)(F)F)c2=O)nn1-c1cccc(Cl)c1 [PECAVAPTAN] | 4.03 | -5.39 | 5.47 | 2.34 | 2.39 | 10.4 | 5.86 | -0.22 | -1.69 | 6.1 | 1.82 | -8.61 | 11.9 | 26 | -1 | 7 | Ki ([19]; read-out: Ki): 2170 nM; Ki ([19]; read-out: pKi (converted)): 2140 nM; inhibition [20]: 5%; inhibition [21]: 15%; inhibition [22]: -6%; inhibition [23]: 6%; IC50 (Vasopressin V1a receptor): 6.74 nM; Ki (Vasopressin V1a receptor): 1.33 nM; inhibition [24]: 0%; inhibition [25]: -7.44% |
